The source of these data is ChEMBL document CHEMBL1122370 (J Med Chem, 1983).

SMILES strings stand for the structures. Several values for one entry are separate records, joined by “and”; a condition that tells them apart may be missing. Equal entries are not always repeated.

In assay [1] the test system is L1210. Briefly: In vivo antitumor activity against L1210 leukemia in 5 mice measured as median survival range at 7.5 mg/kg; Value ranges from (10-14). Format: functional, Mus musculus.
The test system of assay [2] is L1210. Nature of the assay: In vivo antitumor activity against L1210 leukemia in 5 mice measured as median survival range at 15 mg/kg; Value ranges from (14-18). Format: functional, Mus musculus.
Assay [3] deals with L1210. Briefly: In vivo anti tumor activity against L1210 leukemia in 5 mice measured as Increased life span at 7.5 mg/kg. Format: functional. The conditions noted are these: Mus musculus.
The test system of assay [4] is L1210. Nature of the assay: In vivo anti tumor activity against L1210 leukemia in 5 mice measured as Increased life span at 15 mg/kg. Format: functional. The conditions noted are these: Mus musculus.
Assay [5] concerns Mus musculus. Briefly: Average weight of the mouse after treating with 15 mg/kg dose for 1 day. The assay is classed as functional.
The test system of assay [6] is Mus musculus. Nature of the assay: Average weight of the mouse after treating with 7.5 mg/kg dose for 1 day. The assay is classed as functional.
Assay [7] concerns Mus musculus. Briefly: Average weight change in mouse after treating with 7.5 mg/kg dose for 7 days. Format: functional.
The subject of assay [8] is Mus musculus. Briefly: In vivo antitumor activity against L1210 leukemia in 5 mice measured as weight change in 7 days(% weight). Format: functional.
For assay [9], the system named is L1210. Briefly: In vivo antitumor activity against L1210 leukemia in 5 mice measured as median survival range at 20 mg/kg; Value ranges from(13-22). Format: functional, Mus musculus.
The subject of assay [10] is L1210. Nature of the assay: In vivo antitumor activity against L1210 leukemia in 5 mice measured as median survival range at 40 mg/kg; Value ranges from(22-27). Format: functional, Mus musculus.
For assay [11], the system named is L1210. Nature of the assay: In vivo antitumor activity against L1210 leukemia in 5 mice measured as median survival range at 10 mg/kg; Value ranges from(13-20). The assay is classed as functional, Mus musculus.
Assay [12] relates to L1210. Briefly: In vivo antitumor activity against L1210 leukemia in 17 mice measured as T/C values; T/C = 17/9. The assay is classed as functional, Mus musculus.
Assay [13] relates to L1210. Briefly: In vivo antitumor activity against L1210 leukemia in 18 mice measured as T/C values; T/C = 18/9. Format: functional, Mus musculus.
Assay [14] relates to L1210. Nature of the assay: In vivo antitumor activity against L1210 leukemia in 24 mice measured as T/C value; T/C = 24/9. Format: functional, Mus musculus.
Assay [15] concerns L1210. Nature of the assay: In vivo antitumor activity against L1210 leukemia in 5 mice measured as Increased life span at 20 mg/kg. The assay is classed as functional. The conditions noted are these: Mus musculus.
Assay [16] has as its system L1210. Briefly: In vivo antitumor activity against L1210 leukemia in 5 mice measured as Increased life span at 40 mg/kg. Format: functional. The conditions noted are these: Mus musculus.
Assay [17] concerns L1210. Nature of the assay: In vivo anti tumor activity against L1210 leukemia in 5 mice measured as Increased life span at 10 mg/kg. The conditions noted are these: Mus musculus. Format: functional.
Assay [18] has as its system Mus musculus. Nature of the assay: Average weight of the mouse after treating with 10 mg/kg dose for 1 day. The assay is classed as functional. More on the design: unit not given here.
Assay [19] relates to Mus musculus. Nature of the assay: Average weight of the mouse after treating with 20 mg/kg dose for 1 day. Format: functional. More on the design: unit not given here.
In assay [20] the test system is Mus musculus. Nature of the assay: Average weight of the mouse after treating with 40 mg/kg dose for 1 day. The assay is classed as functional. On the set-up: unit not given here.
Assay [21] has as its system Mus musculus. Briefly: Average weight of the mouse after treating with 10 mg/kg dose for 7 days. The assay is classed as functional.
Assay [22] relates to Mus musculus. Nature of the assay: (§1) Average weight of the mouse after treating with 20 mg/kg dose for 7 days. More on the design: unit not given beside the values. Format: functional.
In assay [23] the test system is Mus musculus. Briefly: Average weight of the mouse after treating with 40 mg/kg dose for 7 days. The assay is classed as functional. More on the design: unit not given beside the values.
Assay [24] has as its system L1210. Briefly: In vivo antitumor activity against L1210 leukemia in 5 mice measured as median survival range at 10 mg/kg; Value ranges from (10-15). The assay is classed as functional, Mus musculus.
Assay [25] relates to L1210. Nature of the assay: In vivo antitumor activity against L1210 leukemia in 14 mice measured as T/C values; T/C = 14/9. The assay is classed as functional, Mus musculus.
The test system of assay [26] is L1210. Nature of the assay: In vivo antitumor activity against L1210 leukemia in 5 mice measured as Increased life span at 10 mg/kg. The assay is classed as functional. The conditions noted are these: Mus musculus.
The test system of assay [27] is L1210. Briefly: In vivo antitumor activity against L1210 leukemia in 12 mice measured as T/C values(days); T/C = 12/9. Format: functional, Mus musculus.
Assay [28] relates to L1210. Briefly: In vivo antitumor activity against L1210 leukemia in 5 mice measured as median survival range at 20 mg/kg; Value ranges from (14-18). Format: functional, Mus musculus.
The test system of assay [29] is Mus musculus. Nature of the assay: Average weight change in mouse after treating with 20 mg/kg dose for 7 days. Format: functional. The conditions noted are these: 20 mg/kg. More on the design: unit not given beside the values.
The test system of assay [30] is L1210. Nature of the assay: In vivo antitumor activity against L1210 leukemia in 5 mice measured as median survival range at 20 mg/kg; Value ranges from(17-25). Format: functional, Mus musculus.
For assay [31], the system named is L1210. Briefly: In vivo antitumor activity against L1210 leukemia in 5 mice measured as median survival range at 10 mg/kg; Value ranges from(15-21). Format: functional, Mus musculus.
In assay [32] the test system is L1210. Nature of the assay: In vivo antitumor activity against L1210 leukemia in 15 mice measured as T/C values; T/C = 15/9. The assay is classed as functional, Mus musculus.
The test system of assay [33] is Mus musculus. Described as §1. The assay is classed as functional.

`CCCCCCCCOC(=O)CCC(NC(=O)c1ccc(N(C)Cc2cnc3nc(N)nc(N)c3n2)cc1)C(=O)OCCCCCCCC` (stereo unspecified): the values for the Range with L1210 [1] and with L1210 [2] were 14 and 18, respectively. The ILS at 7.5 mg/kg with L1210 [3] stood at 44%. Further, in the assay on L1210 [4], the ILS at 15 mg/kg was 66%. Moreover, the values for the Average weight with Mus musculus [5] and in the assay on Mus musculus [6] were 25.2 and 26.4, respectively. Besides, the Weight change was 0.4 in the assay on Mus musculus [7] and 0.8 with Mus musculus [8].
Take `CN(Cc1cnc2nc(N)nc(N)c2n1)c1ccc(C(=O)NC(CCC(=O)OCc2cc3c(cc2Cl)OCO3)C(=O)OCc2cc3c(cc2Cl)OCO3)cc1` (stereo unspecified): the figures for the Range with L1210 [9], in the assay with L1210 [10] and in the assay on L1210 [11] were 22, 27 and 20, respectively. The T/C with L1210 [12] was determined as 11; in the assay with L1210 [13] it was 9; in the assay on L1210 [14], 9. The ILS at 20 mg/kg in the assay with L1210 [15] worked out at 100%. For the same compound, the ILS at 40 mg/kg in the assay with L1210 [16] is 167%. The ILS at 10 mg/kg in the assay on L1210 [17] is 88%. In addition, the Average weight with Mus musculus [18] stood at 22.5; with Mus musculus [19], 22.2; in the assay on Mus musculus [20], 21.4. In addition, the figures for the Weight change in the assay with Mus musculus [21], in the assay on Mus musculus [22] and in the assay on Mus musculus [23] were 2.1, 1 and 0.2, respectively.
For `CCCCCOC(=O)CCC(NC(=O)c1ccc(N(C)Cc2cnc3nc(N)nc(N)c3n2)cc1)C(=O)OCCCCC` (stereo unspecified), the Range in the assay on L1210 [24] is listed as 15; with L1210 [28] it was 18. The T/C in the assay on L1210 [25] worked out at 14; in the assay on L1210 [27], 12. In the assay on L1210 [26], this compound displayed an ILS at 10 mg/kg of 33%. The ILS at 20 mg/kg in the assay with L1210 [15] turned out to be 55%. In addition, in the assay with Mus musculus [19] (20 mg/kg), the Average weight was 21.5 and 20.8. Further, in the assay on Mus musculus [29], the Weight change was 0.6 and 0.4.
Take `CN(Cc1cnc2nc(N)nc(N)c2n1)c1ccc(C(=O)NC(CCC(=O)OCc2c(Cl)cccc2Cl)C(=O)OCc2c(Cl)cccc2Cl)cc1` (stereo unspecified): the Range with L1210 [30] stood at 25; in the assay on L1210 [31], 21. The T/C in the assay on L1210 [32] and in the assay with L1210 [14] was 9 in each case. In the assay on L1210 [26], the ILS at 10 mg/kg worked out at 66%. In the assay with L1210 [15], this compound returned an ILS at 20 mg/kg of 167%. Besides, the Average weight in the assay on Mus musculus [18] was 21.6; in the assay on Mus musculus [19] it was 22.4. Also, the Weight change in the assay on Mus musculus [21] amounted to 1.4; in the assay with Mus musculus [33], 0.8.

Usually ILS stands for the gain in survival time of treated over control animals, in per cent.
